Patent publication US5770691A, “Discriminatory substrates for MMP hydrolysis” (Regents of the University of Minnesota, priority 1995, dated 1998)
Like-named read-outs stand apart in the source and are kept apart here. Where a SMILES comes first, the peptide text is derived from it. [ ]: non-standard residue; d: D form. The star is where a group is joined. Dnp = O=[N+]([O-])c1ccc(*)c([N+](=O)[O-])c1; Mca = COc1ccc2c(CC(=O)*)cc(=O)oc2c1; Nva = CCC[C@H](N)C(=O)O

Assays:
MMP-3 [1] = molecular target: T1, MMP-3 (Homo sapiens, UniProt P08254); details: MMP-3 cleavage, cited from earlier work
Target sequence in this assay (P08254 100-477, species assumed): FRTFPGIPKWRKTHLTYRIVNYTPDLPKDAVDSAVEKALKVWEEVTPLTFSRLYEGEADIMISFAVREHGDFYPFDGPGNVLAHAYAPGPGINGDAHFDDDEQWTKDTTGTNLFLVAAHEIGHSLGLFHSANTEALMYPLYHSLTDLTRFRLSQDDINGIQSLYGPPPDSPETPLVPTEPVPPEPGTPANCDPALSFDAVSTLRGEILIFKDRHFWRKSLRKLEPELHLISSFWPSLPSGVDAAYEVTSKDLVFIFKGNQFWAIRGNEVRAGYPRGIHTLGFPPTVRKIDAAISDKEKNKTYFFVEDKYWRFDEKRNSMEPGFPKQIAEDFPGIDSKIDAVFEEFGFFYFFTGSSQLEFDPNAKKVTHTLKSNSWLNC

MMP-3 [2] = molecular target: T1, MMP-3; details: cited from earlier work
Target sequence in this assay (P08254 100-477, species assumed): as above

MMP-3 [3] = molecular target: T1, MMP-3; assay: Fluorometric hydrolysis of synthetic Mca/Lys(Dnp) substrates by MMP-3; type: biochemical; parameters: made in house; host or cells: native secreted protein purified from culture medium of human rheumatoid synovial cells; details: Edman degradation analysis after 36-72 hour treatment of substrate with MMP
Target sequence in this assay (P08254 100-477): as the sequence (P08254 100-477, species assumed) above

MMP-1 = molecular target: T2, MMP-1 (Homo sapiens, UniProt P03956); assay: Fluorometric hydrolysis of synthetic Mca/Lys(Dnp) substrates by MMP-1; type: biochemical; parameters: made in house; host or cells: native secreted protein purified from culture medium of human rheumatoid synovial cells; details: for site of hydrolysis by MMP-1: Edman degradation analysis after 36-72 hour treatment of substrate with MMP
T2 sequence (P03956 100-469): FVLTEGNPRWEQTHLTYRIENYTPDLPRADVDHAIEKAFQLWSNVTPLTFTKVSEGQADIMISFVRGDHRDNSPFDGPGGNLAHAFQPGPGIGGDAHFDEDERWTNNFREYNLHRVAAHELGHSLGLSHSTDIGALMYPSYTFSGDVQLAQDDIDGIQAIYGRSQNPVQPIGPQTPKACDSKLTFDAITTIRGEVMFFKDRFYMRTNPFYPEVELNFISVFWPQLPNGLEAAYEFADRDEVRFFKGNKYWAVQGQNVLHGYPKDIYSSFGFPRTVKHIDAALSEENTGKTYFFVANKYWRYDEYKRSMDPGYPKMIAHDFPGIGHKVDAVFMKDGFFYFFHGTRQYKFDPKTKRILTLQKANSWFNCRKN
Description: (§1) All MMPs were purified in zymogen form. ProMMP-1 (Suzuki et al., Biochem., 29, 10261 (1990)), proMMP-2 (Okada et al., Eur. J. Biochem., 194, 721 (1990)), and proMMP-3 (Ito et al., Arch. Biochem. Biophys., 267, 211 (1988)) were purified from the culture medium of human rheumatoid synovial cells stimulated with rabbit macrophage-conditioned medium. ProMMP-9 was purified from the culture medium of HT-1080 cells as described in Morodomi et al., Biochem. J., 285, 603 (1992). ProMMP-2 and proMMP-9 were activated by reacting with 1 mM 4-aminophenylmercuric acetate at 37° C. for 45 minutes and 32 hours, respectively. ProMMP-1 was activated by reacting with 1 mM 4-aminophenylmercuric acetate and an equimolar amount of MMP-3 at 37° C. for 6 hours. After activation, MMP-3 was completely removed from MMP-1 by affinity chromatography using an anti-MMP-3 IgG Affi-Gel 10 column. The resin, Affi-Gel 10 (Biorad, Emoryville, Calif.), was coupled to anti-MMP-3 IgG (Okada et al., Annals of Rheumat. Dis., 48, 645 (1989)) per the manufacturer's protocol. Pro-MMP-3 was activated by reacting with 5 μg/mL chymotrypsin at 37° C. for 2 hours. Chymotrypsin was inactivated with 2 mM diisopropylfluorophosphate. The amounts of active MMP-1, MMP-2, and MMP-3 were determined by titration with tissue inhibitor of metalloproteinase-1(TIMP1) over a concentration range of 0.1-3 μg/mL, while the amount of active MMP-9 was determined by titration with TIMP-2 (0.1-3 μg/mL). TIMP-1 was isolated from the medium of HT-1080 cells as described in Morodomi et al., Biochem J., 285, 603 (1992).
(§2) Substrates were prepared as 10 mM stock solutions in dimethylsulfoxide (DMSO). Fluorescent assays were performed at λex =325 nm and λem =393 nm, which should encounter no interference from Trp residues, using a Hitachi fluorescence spectrophotometer F-3010. Initial total hydrolysis assays were run at a substrate concentration of […] to avoid filtering effects. The change in fluorescence at this concentration was 110 based on total hydrolysis of 1 μM substrate. A typical assay was carried out by incubating 100 μL of various concentrations of a substrate with 10 μL of an enzyme solution (2-20 nM) in 50 mM Tris-HCl, pH 7.5, 0.15M NaCl, 10 mM CaCl2, 0.05% Brij 35, 0.02% NaN3. The reaction was stopped by addition of 900 μl of 3% (v/v) glacial acetic acid. MMP-3 activity at pH 6.0 was measured in 50 mM sodium acetate buffer, pH 6.0, instead of Tris-HCl buffer. The amount of substrate hydrolysis was calculated based on the fluorescence values of the Mca-Arg-Pro-Lys-Pro-Gln standard solution after substraction of the reaction blank value (stopping solution added before the enzyme). Individual kinetic parameters (kcat and KM) were determined over a substrate concentration range of 2.5-75 μM and calculated by double reciprocal plots.

MMP-9 [4] = molecular target: T3, MMP-9 (Homo sapiens, UniProt P14780); assay: Fluorometric hydrolysis of synthetic Mca/Lys(Dnp) substrates by MMP-9; type: biochemical; parameters: made in house; host or cells: native secreted protein purified from culture medium of HT-1080 cells
T3 sequence (P14780 107-707 limits assumed): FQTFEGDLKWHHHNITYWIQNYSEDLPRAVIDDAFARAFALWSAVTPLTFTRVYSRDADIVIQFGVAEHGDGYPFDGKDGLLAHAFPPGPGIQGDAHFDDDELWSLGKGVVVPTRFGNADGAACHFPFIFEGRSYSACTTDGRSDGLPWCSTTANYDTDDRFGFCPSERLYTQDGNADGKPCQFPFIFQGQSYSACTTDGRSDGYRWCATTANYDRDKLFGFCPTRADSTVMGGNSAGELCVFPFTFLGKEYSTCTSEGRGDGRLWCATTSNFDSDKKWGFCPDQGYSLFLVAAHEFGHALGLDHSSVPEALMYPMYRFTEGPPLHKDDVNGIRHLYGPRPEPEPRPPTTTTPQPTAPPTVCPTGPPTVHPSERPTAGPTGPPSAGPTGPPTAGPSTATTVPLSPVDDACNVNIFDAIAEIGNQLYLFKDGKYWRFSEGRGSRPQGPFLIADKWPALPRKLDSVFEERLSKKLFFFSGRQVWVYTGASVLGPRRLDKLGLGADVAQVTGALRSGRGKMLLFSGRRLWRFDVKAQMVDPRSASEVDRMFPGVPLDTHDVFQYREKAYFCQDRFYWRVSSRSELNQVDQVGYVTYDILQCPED
Description: as §1, §2

MMP-9 [5] = molecular target: T3, MMP-9; assay: as above; type: biochemical; parameters: made in house; host or cells: native secreted protein purified from culture medium of HT-1080 cells; details: Edman degradation analysis after 36-72 hour treatment of substrate with MMP
MMP-3 [6] = molecular target: T1, MMP-3; assay: Fluorometric hydrolysis of synthetic Mca/Lys(Dnp) substrates by MMP-3; type: biochemical; parameters: made in house; host or cells: native secreted protein purified from culture medium of human rheumatoid synovial cells; details: for kcat /Km: MMP-3, 37° C., pH 7.5
Description: as §1, §2
Target sequence in this assay (P08254 100-477): as the sequence (P08254 100-477, species assumed) above

MMP-2 = molecular target: T4, MMP-2 (Homo sapiens, UniProt P08253); assay: Fluorometric hydrolysis of synthetic Mca/Lys(Dnp) substrates by MMP-2; type: biochemical; parameters: made in house; host or cells: native secreted protein purified from culture medium of human rheumatoid synovial cells; details: for site of hydrolysis by MMP-2: Edman degradation analysis after 36-72 hour treatment of substrate with MMP
T4 sequence (P08253 110-660): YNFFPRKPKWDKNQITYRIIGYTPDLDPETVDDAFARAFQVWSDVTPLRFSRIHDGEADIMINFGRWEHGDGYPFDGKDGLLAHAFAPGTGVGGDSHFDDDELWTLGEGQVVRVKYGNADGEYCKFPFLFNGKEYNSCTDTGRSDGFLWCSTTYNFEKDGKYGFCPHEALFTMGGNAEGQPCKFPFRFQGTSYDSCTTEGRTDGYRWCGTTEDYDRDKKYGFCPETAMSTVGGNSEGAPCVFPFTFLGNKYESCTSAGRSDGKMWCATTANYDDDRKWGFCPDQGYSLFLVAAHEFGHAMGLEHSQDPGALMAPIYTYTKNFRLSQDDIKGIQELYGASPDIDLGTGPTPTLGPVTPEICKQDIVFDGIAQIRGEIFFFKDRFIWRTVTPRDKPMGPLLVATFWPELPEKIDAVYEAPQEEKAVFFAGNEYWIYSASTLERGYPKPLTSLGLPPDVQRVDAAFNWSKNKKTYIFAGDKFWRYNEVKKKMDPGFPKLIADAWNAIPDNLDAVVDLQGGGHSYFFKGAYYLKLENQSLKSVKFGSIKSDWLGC
Description: as §1, §2

In the case of “Substance P: 11 residue peptide substrate of MMP-3, cleaved at Gln6-Phe7 [reference compound]”, the “kcat /Kb” value (MMP-3 [1]; determined at 37° C.) is given as 1,790 S^-1 M^-1.
For “Gly--Pro--Gln--Gly"--"Ile--Ala--Met--Gln (chain 1 GPQG; chain 2 IAMQ; printed: Gly--Pro--Gln--Gly; printed: Ile--Ala--Met--Gln) [literature synthetic MMP-3 substrate (Fields, 1988)]”, the Km (MMP-3 [2]; MMP-3, assay at 30° C.) is given as 5600 µM, the kcat (MMP-3 [2]; MMP-3, assay at 30° C.) is given as 0.69 S^-1 and the “kcat Km” value (MMP-3 [2]; MMP-3, assay at 30° C.) is given as 120 S^-1 M^-1.
In the case of `CCC[C@H](NC(=O)[C@H](C)NC(=O)[C@H](Cc1ccc(O)cc1)NC(=O)[C@@H]1CCCN1C(=O)[C@H](CCCCN)NC(=O)[C@@H]1CCCN1C(=O)[C@H](CCCNC(=N)N)NC(=O)Cc1cc(=O)oc2cc(OC)ccc12)C(=O)N[C@@H](Cc1c[nH]c2ccccc12)C(=O)N[C@@H](CCSC)C(=O)N[C@@H](CCCCNc1ccc([N+](=O)[O-])cc1[N+](=O)[O-])C(N)=O` [NFF-2, Mca-Arg-Pro-Lys-Pro-Tyr-Ala-Nva-Trp-Met-Lys(Dnp)-NH2] (Mca-RPKPYA[Nva]WMK(Dnp)-NH2), the “site of hydrolysis by MMP-3” value (MMP-3 [3]) is reported as “Ala--Nva bond”, the “site of hydrolysis by MMP-1” value (MMP-1) is reported as “Ala--Nva bond” and the “MMP-1 activity reduced compared to NFF-1” value (MMP-1; relative to NFF-1) is reported as ~ 50%. For the same molecule, the “hydrolysis by MMP-9” value (MMP-9 [4]) was “most rapidly hydrolyzed substrate for MMP-9 reported to date”, the “hydrolyzed more rapidly than NFF-1 by MMP-9” value (MMP-9 [4]; rate relative to NFF-1) was 14 times and the “site of hydrolysis by MMP-9” value (MMP-9 [5]) was “Ala--Nva bond”. The “kcat /Km” value (MMP-3 [6]) was 59,400 S^-1 M^-1, the “hydrolyzed more rapidly than NFF-1 by MMP-3” value (MMP-3 [6]; rate relative to NFF-1) was 6 times and the “hydrolyzed more rapidly by MMP-3 than MMP-1” value (MMP-3 [6]; selectivity MMP-3 over MMP-1) was 60 times. For the same molecule, the “site of hydrolysis by MMP-2” value (MMP-2) was “Ala--Nva bond” and the “hydrolyzed more rapidly than NFF-1 by MMP-2” value (MMP-2; rate relative to NFF-1) was 5 times.
For “Human aggrecan: extracellular matrix protein cleaved by MMP-3 at Asn341-Phe342”, the “kcat /Kb” value (MMP-3 [1]; determined at 22° C.) is given as 4,000 S^-1 M^-1.
For “Dnp--Pro--Tyr--Ala"--"Tyr--Trp--Met--Arg--NH3 (Dnp-PYAYWMR-NH2; not fully specified; printed as Dnp—Pro—Tyr—Ala"—"Tyr—Trp—Met—Arg—NH$_3$) [literature fluorogenic substrate (Netzel-Arnett et al., 1991)]”, the kcat (MMP-3 [2]; MMP-3, assay at 23° C.) is listed as 0.24 S^-1, the Km (MMP-3 [2]; MMP-3, assay at 30° C.) is listed as 100 µM and the “kcat Km” value (MMP-3 [2]; MMP-3, assay at 37° C.) is listed as 2,400 S^-1 M^-1.
In the case of `COc1ccc2c(CC(=O)N3CCC[C@H]3C(=O)N[C@@H](CCCCN)C(=O)N3CCC[C@H]3C(=O)N[C@@H](CCC(N)=O)C(=O)N[C@@H](CCC(N)=O)C(=O)N[C@@H](Cc3ccccc3)C(=O)N[C@@H](Cc3ccccc3)C(=O)NCC(=O)N[C@@H](CC(C)C)C(=O)N[C@@H](CCCCNc3ccc([N+](=O)[O-])cc3[N+](=O)[O-])C(=O)NCC(=O)O)cc(=O)oc2c1` [NFF-1, Mca-Pro-Lys-Pro-Gln-Gln-Phe-Phe-Gly-Leu-Lys(Dnp)-Gly] (Mca-PKPQQFFGLK(Dnp)G-OH), the “site of hydrolysis by MMP-3” value (MMP-3 [3]) is reported as “Gln--Phe bond”, the “ratio of hydrolysis at the Gln-Phe and Gly-Leu bonds by MMP-1” value (MMP-1; Edman degradation analysis after 36-72 hour treatment) is reported as 3.2 and the “site of hydrolysis by MMP-1” value (MMP-1) is reported as “Gln--Phe and Gly--Leu bonds”. For the same molecule, the “less activity of MMP-1 than MMP-3 towards the substrate” value (MMP-1; MMP-1 compared with MMP-3) was 75%, the “less activity of MMP-9 than MMP-3 towards the substrate” value (MMP-9 [4]; MMP-9 compared with MMP-3) was 60% and the “site of hydrolysis by MMP-9” value (MMP-9 [5]) was “Gly--Leu bond”. The “kcat /Km” value (MMP-3 [6]) was 10,900 S^-1 M^-1, the “hydrolysis by MMP-3 compared with MMP-2” value (MMP-3 [6]; MMP-3 and MMP-2) was “equally well” and the “site of hydrolysis by MMP-2” value (MMP-2) was “Gln--Phe bond”.
For Antithrombin III, the “kcat /Kb” value (MMP-3 [1]; determined at 37° C.) is listed as under 50 S^-1 M^-1.
In the case of “Dnp-Arg-Pro-Lys-Pro-Leu-Ala-Nva-Trp-NH2 (Dnp-RPKPLA[Nva]W-NH2; SMILES CCC[C@H](NC(=O)[C@H](C)NC(=O)[C@H](CC(C)C)NC(=O)[C@@H]1CCCN1C(=O)[C@H](CCCCN)NC(=O)[C@@H]1CCCN1C(=O)[C@H](CCCNC(=N)N)Nc1ccc([N+](=O)[O-])cc1[N+](=O)[O-])C(=O)N[C@@H](Cc1c[nH]c2ccccc12)C(N)=O) [literature fluorogenic MMP-3 substrate (Niedzwiecki et al., 1992)]”, the “kcat Km” value (MMP-3 [2]; MMP-3, assay at 25° C.) is listed as 45,000 S^-1 M^-1.
For “α1 -Protease inhibitor: protease inhibitor cleaved by MMP-3 at Pro357-Met358”, the “kcat /Kb” value (MMP-3 [1]; determined at 37° C.) is given as 5,400 S^-1 M^-1.
For “Human α2 -macroglobulin: protein substrate of MMP-3; cleavage sites Gly679-Leu680 and Phe684-Tyr685”, the “kcat /Kb” value (MMP-3 [1]; determined at 25° C.) is listed as 56,000 S^-1 M^-1.
